Test system: aerobic bacteria
Experiment: total bacterial count test on finished gloves (TSA plates)
Details: FIG. 5, total bacteria count on prepared articles as a function of CHG concentration in the coagulant
Description: In order to determine the effectiveness of the antimicrobial coagulant on a finished article, a total bacterial count test was completed on the article prepared using the above formulas. The following three concentrations were prepared: 0.8% Saline Solution (sodium Chloride), 4% TSA & 6.5% SDA solution, which were subsequently sterilized at 121° C. for 15 minutes. Three gloves made with each formula were cut into two pieces each and were soaked into 60 ml Saline solution and shaken for 10 minutes. After that, 1 ml of the solution and 1 ml of Agar solution (TSA and SDA) were pipetted out into a Petri dish. The Petri dish plates were incubated for 2 days at 30-35° C. for TSA & 4 days at 20-25° C. for SDA. The colonies on each plate was counted and total fungus/aerobic bacteria count per glove was calculated as: Total Aerobic Bacteria Count Per Glove=(Count of TSA plate*60)/3 Total Fungus Count Per Glove=(Count of SDA plate*60)/3 The results of total bacteria count on TSA for above four samples and control sample are listed below.

N=C(NCCCCCCNC(=N)NC(=N)Nc1ccc(Cl)cc1)NC(=N)Nc1ccc(Cl)cc1.O=C(O)[C@H](O)[C@@H](O)[C@H](O)[C@H](O)CO.O=C(O)[C@H](O)[C@@H](O)[C@H](O)[C@H](O)CO [CHG, chlorhexidine gluconate]
concentration of CHG up to which total bacteria count decreased (above it the count increased): approximately 0.02%

— patent publication US10786930B2, “Articles having antimicrobial properties and methods of manufacturing the same” (Medline Industries, Inc., priority 2010, dated 2020)
